{
  "source": "patent US11795197B2",
  "about": "“Peptide compositions for immuno-oncology molecular imaging and targeted drug delivery” (Cedars-Sinai Medical Center, priority 2017, dated 2023)",
  "key": {"BT474 cells [1]": {"system": "BT474 cells", "assay": "Cellular toxicity of LDLLDL peptide by microscopy", "type": "cell-based, human", "conditions": "0.1-1000 μM/mL, up to highest concentration tested", "from_the_text": "(§1) A FPR-targeted peptide and its optical imaging probe were designed and synthesized: The inventors synthesized an FPR-targeted peptide agent Leu-Asp-Leu-Leu-Asp-Leu (LDLLDL: SEQ ID NO:1), which is an antagonist peptide for FPR1 receptor. The inventors have also developed an NIR optical imaging probe to evaluate the targeting capability. Specifically, the base peptide ligand was synthesized by the solid-phase method. After the peptide sequence was assembled on resin, the ivDDE protecting group was removed from the w-amino group of the lysine by treatment with hydrazine. The inventors tested varying concentrations (0.1-1000 μM/mL) of LDLLDL (SEQ ID NO:1) peptide in all four breast cancer cell types (BT474, BT549, MDA-MB-231 and MCF-7) to assess cellular toxicity."}, "MDA-MB-231 cells [2]": {"system": "MDA-MB-231 cells", "assay": "Cellular toxicity of LDLLDL peptide by microscopy", "type": "cell-based, human", "conditions": "0.1-1000 μM/mL, up to highest concentration tested", "from_the_text": "as §1"}, "BT549 cells": {"system": "BT549 cells", "assay": "Cellular toxicity of LDLLDL peptide by microscopy", "type": "cell-based, human", "conditions": "0.1-1000 μM/mL, up to highest concentration tested", "from_the_text": "as §1"}, "MCF-7 cells [3]": {"system": "MCF-7 cells", "assay": "Cellular toxicity of LDLLDL peptide by microscopy", "type": "cell-based, human", "conditions": "0.1-1000 μM/mL, up to highest concentration tested", "from_the_text": "as §1"}, "[4]": {"assay": "Solubility of the peptide", "type": "physicochemical"}, "[5]": {"system": "macrophage cell line RAW264.7", "assay": "Cellular uptake of FPR peptide by near infrared fluorescence imaging", "type": "cell-based", "conditions": "peptide 5 uMol/uL, 4 hrs", "procedure": "(§2) To study the ability of the FPR peptide to internalize and fluorescently labeled cancer and macrophage cells, various breast cancer cell lines were treated with the peptide (5 uMol/uL) for 4 hrs. […] Fluorescence uptake was not observed in the normal human mammary epithelial cells (HEMC-control), as expected, since there is no expression of FPR receptor for HEMC."}, "[6]": {"system": "E0771 breast cancer tumor xenograph", "assay": "In vivo fluorescence imaging in tumor xenograph mice", "set-up": "species or system C57BL/6 mice", "conditions": "30 ul of peptide (2 nMoles), within 6 hr, rear bilateral flank tumors", "procedure": "(§3) FIG. 9 depicts one of 10 mice experiments in accordance with various embodiments. Ten mice (C57BL/6 mice) were implanted with breast cancer cells (E0771) to develop breast cancer tumor xenograph model. The tumors were allowed to grow for 4 weeks before the mice were injected with 30 ul of peptide (2 nMoles). The animals were imaged using mouse fluorescence imaging after 1, 2, 3, 4, 6 hr."}, "human TNBC cells": {"system": "human TNBC cells", "assay": "Target specificity of the FPR peptide by near infrared fluorescence imaging", "type": "cell-based", "conditions": "3 hrs, 5 and 10 μM/mL", "procedure": "(§4) LDLLDL-Cy7 ([SEQ ID NO:1]-Cy7) was used to treat five cancer cell lineages (MDA-MB-231, BT549, HCC1500, BT474, and MCF-7) and normal human mammary epithelial cell (HEMC) for 3 hrs at the concentrations of 5 and 10 μM/mL. After washing 3 times with cold PBS, all cells were imaged using near infrared fluorescence imaging and target specificity of the FPR peptide was evaluated."}, "BT474 cells [7]": {"system": "BT474 cells", "assay": "Cellular uptake of FPR peptide by near infrared fluorescence imaging", "type": "cell-based, human", "procedure": "as §2, §4"}, "MDA-MB-231 cells [8]": {"system": "MDA-MB-231 cells", "assay": "Cellular uptake of FPR peptide by near infrared fluorescence imaging", "type": "cell-based, human", "conditions": "3 hrs, 5 and 10 μM/mL, FIG. 4", "procedure": "as §2, §4"}, "MCF-7 cells [9]": {"system": "MCF-7 cells", "assay": "Cellular uptake of FPR peptide by near infrared fluorescence imaging", "type": "cell-based, human", "conditions": "3 hrs, 5 and 10 μM/mL, FIG. 4", "procedure": "as §2, §4"}, "HCC1500 cells": {"system": "HCC1500 cells", "assay": "Cellular uptake of FPR peptide by near infrared fluorescence imaging", "type": "cell-based, human", "procedure": "as §2, §4"}, "[10]": {"system": "MDA-MB-231 breast cancer tumor xenograph", "assay": "In vivo fluorescence imaging and organ biodistribution in tumor xenograph mice", "procedure": "FIG. 5 depicts in accordance with various embodiments of the invention, in vivo fluorescent image of xenograft mice after 6 hours of tail vein injection. Mice were injected with fluorescent dye (Cy7) only (left panel), and peptide-Cy7 (right panel).\nFIG. 6 depicts in accordance with various embodiments of the invention, the biodistribution in tumor-bearing mice after 7 hours of tail vein injection. Mice were injected with fluorescent dye only (left panel), and peptide LDLLDL-Cy7 (right panel)([SEQ ID NO:1]-Cy7).\nTen mice were implanted with breast cancer cells (MDA-MB-231) to develop breast cancer tumor xenograph models. The tumors were allowed to grow for 4 weeks before the mice were injected with 30 ul of peptide (2 nMoles). The animals were imaged using mouse fluorescence imaging after 1, 2, 3, 4, and 6 hours. FIG. 5 show the results of one of those mice experiments. […] After 7 hours the animals were sacrificed and organs extracted and imaged."}, "[11]": {"system": "normal human mammary epithelial cell (HEMC)", "assay": "Cellular uptake of FPR peptide by near infrared fluorescence imaging", "type": "cell-based", "procedure": "as §2, §4"}, "[12]": {"system": "4T1 breast cancer tumor xenograph", "assay": "In vivo fluorescence imaging in tumor xenograph mice", "set-up": "species or system Balb/c mice", "conditions": "30 ul of peptide (2 nMoles), within 6 hr, mammary gland tumors", "procedure": "as §3, with “10” for “9”, “(Balb/c” for “(C57BL/6”, “(4T1)” for “(E0771)”"}, "[13]": {"system": "xenograft breast cancer model with ANXA1 overexpression", "assay": "PET uptake in breast cancer xenograft model with ANXA1 overexpression", "type": "in vivo, mice", "from_the_text": "(§5) Without being bound to any particular theory, the inventors believe that ANXA1 is associated with tumorigenesis and progression, and the synthesized peptide imaging probe can be used as a surrogate for monitoring the tumor expression with ANXAL. To characterize target specificity, the inventors developed the breast cancer xenograft model with ANXA1 overexpression as well as an ANXA1-knockdown model using a shRNA lentiviral vector technique. […] The inventors assess the pharmacokinetic profile and tumor specific targeting potency of the new imaging probe, and its effectiveness in evaluation of tumorigenesis and progression of aggressive breast cancer. See FIG. 8 for experimental design.\nBreast cancer xenograft model: In vitro studies described above identified the expression of ANXA1/FPR1 for all tested cells. […] Body weight and tumor volume is measured weekly. […]\nBlood clearance and biodistribution: i) Blood clearance: After anesthesia (isoflurane 2-3%), 2 groups of 5 mice each are injected with radiolabeled LDLLDL-^64Cu ([SEQ ID NO:1]-^64Cu) (˜5 μCi) via tail vein. Retro-orbital blood samples (25 μL) are collected at various time points such as 5, 15, 30, 60, 120, 240 min and 24 h after injection and radioactivity of all samples are counted in a gamma counter (Perkin-Elmer). […] At 1 h, 2 h, 4 h, 24 h after injection, mice are scanned by small-animal PET followed by tissue radioactivity assay. […]"}, "[14]": {"system": "ANXA1-knockdown breast cancer xenograft", "assay": "PET uptake in ANXA1-knockdown xenograft model", "type": "in vivo, mice", "from_the_text": "as §5, with “design. […]” for “design.”\nEvaluation of tumor uptake in ANXA1 knockdown xenograft model: The inventors evaluate the effects of ANXA1 in regulating tumorigenesis and progression using the ANXA1-KD/control breast cancer xenograft model. […] Tumor growth and/or progression of the disease is monitored up to 8 weeks after cell inoculation. […] On completion of PET/CT at 24 h after injection, a tissue radioactivity assay is performed, and tissue radioactivity is calculated and expressed as decay-corrected percentage injected dose per gram of tissue (% ID/g). The tumor radioactivity and size are compared between ANXA1-KD tumor and ANXA1-SCR tumor. […]"}, "tumor-expressing ANXA1": {"system": "tumor-expressing ANXA1", "assay": "In vitro target binding specificity in breast cancer cell models", "type": "cell-based", "conditions": "human breast cancer cell models", "procedure": "In vitro target specificity binding is evaluated in two steps: Step 1: Characterize the ANXA1/FPR1 expression baseline by examining expression levels of FPR1 and ANXA1 in five human breast cancer cell lines, MDA-MB-231, HCC1500, BT549, MCF-7, BT474, and HEMC. Obtaining protein expression by performing IHC staining using the anti-ANXA1 and anti-FPR1 antibody. The cell lines with positive staining are identified. Further, the […] of ANXA1 and FPR1 are evaluated by western blotting and qRT-PCR. The correlation between FPR1 and ANXA1 are validated, and the cells with highest FPR1 and ANXA1 expression are selected for further in vivo study. The results establish the baseline of expression of ANXA1 and FPR1 in the tested breast cancer cell lines.\nStep 2: Characterization of the binding specificity of the LDLLDL-^64Cu ([SEQ ID NO:1]-^64Cu) is tested on the cell lines described above. The cells are cultured in two groups of Petri dishes. […] The suspended cells are measured for radioactivity using a gamma-counter. Disintegrations per minute per cell are calculated and reported as the peptide uptake for each cell line. […] The cell-associated radioactivity is measured, and the binding affinity is determined by the Grafit software (Erithacus, Inc). […]"}, "[15]": {"conditions": "organs extracted after 7 hours, FIG. 6"}},
  "note": "Residues, ends and D or L forms follow the SMILES beside them. No end group written: not given here. K(CB-TE2A) = lysine carrying the CB-TE2A chelator (for 64Cu); Cy7 = near-infrared fluorescent dye for NIRF imaging; PEGn = polyethylene glycol (n units) spacer",
  "data": [
    {"molecule": "CC(C)C[C@H](NC(=O)[C@H](CC(=O)O)NC(=O)[C@H](CC(C)C)NC(=O)[C@H](CC(C)C)NC(=O)[C@H](CC(=O)O)NC(=O)[C@@H](N)CC(C)C)C(=O)O", "note": "[LDLLDL, Leu-Asp-Leu-Leu-Asp-Leu] (H-LDLLDL-OH; N-terminus and C-terminus assumed)", "values": [
      {"measurement": "cellular toxicity (cell death by microscopy)", "setting": "BT474 cells [1]", "value": "Apparent cell death could not be observed"},
      {"measurement": "cellular toxicity (cell death by microscopy)", "setting": "MDA-MB-231 cells [2]", "value": "Apparent cell death could not be observed"},
      {"measurement": "cellular toxicity (cell death by microscopy)", "setting": "BT549 cells", "value": "Apparent cell death could not be observed"},
      {"measurement": "cellular toxicity (cell death by microscopy)", "setting": "MCF-7 cells [3]", "value": "Apparent cell death could not be observed"},
      {"measurement": "solubility", "setting": "[4]", "value": "superior"}
    ]},
    {"molecule": "LDLLDL-Cy7", "values": [
      {"measurement": "uptake of the peptide", "setting": "[5]", "value": "substantial uptake"},
      {"measurement": "fluorescence in the implanted tumors", "setting": "[6]", "value": "intense fluorescence"},
      {"measurement": "binding affinity", "setting": "human TNBC cells", "value": "High binding affinity"},
      {"measurement": "uptake of LDLLDL-Cy7", "setting": "BT474 cells [7]; 3 hrs, 5 and 10 μM/mL, FIG. 4", "value": "weak uptake"},
      {"measurement": "cell associated fluorescence", "setting": "BT474 cells [7]; peptide 5 uMol/uL, 4 hrs, Her2 line", "value": "cell associated fluorescence"},
      {"measurement": "uptake of LDLLDL-Cy7", "setting": "MDA-MB-231 cells [8]", "value": "substantial uptake"},
      {"measurement": "uptake of LDLLDL-Cy7", "setting": "MCF-7 cells [9]", "value": "weak uptake"},
      {"measurement": "uptake of LDLLDL-Cy7", "setting": "HCC1500 cells; 3 hrs, 5 and 10 μM/mL, FIG. 4", "value": "substantial uptake"},
      {"measurement": "cell associated fluorescence", "setting": "HCC1500 cells; peptide 5 uMol/uL, 4 hrs, ER-positive luminal line", "value": "cell associated fluorescence"},
      {"measurement": "fluorescence in the rest of the organs", "setting": "[10]; [15]", "value": "no significant fluorescence"},
      {"measurement": "uptake in the tumors (extracted organs imaged)", "setting": "[10]; [15]", "value": "strong uptake"},
      {"measurement": "fluorescence in the implanted tumors", "setting": "[10]; tail vein injection, 6 hours after injection, FIG. 5", "value": "intense fluorescence"},
      {"measurement": "fluorescence uptake of LDLLDL-Cy7", "setting": "[11]; 3 hrs, 5 and 10 μM/mL, FIG. 4", "value": "no fluorescence uptake"},
      {"measurement": "fluorescence uptake", "setting": "[11]; peptide 5 uMol/uL, 4 hrs, control without FPR expression", "value": "not observed"},
      {"measurement": "fluorescence in the implanted tumors", "setting": "[12]", "value": "intense fluorescence"}
    ]},
    {"molecule": "LDLLDL-^64Cu (LDLLDL-{PEGn-K(CB-TE2A)}; also: 64Cu chelated by CB-TE2A)", "values": [
      {"measurement": "uptake in PET image studies", "setting": "[13]", "value": "significantly high uptake"},
      {"measurement": "uptake of the peptide", "setting": "[14]", "value": "reduced uptake"},
      {"measurement": "targeting specificity and sensitivity", "setting": "tumor-expressing ANXA1", "value": "excellent specificity and sensitivity"}
    ]}
  ]
}
